The test system of data set [1] is HIV-1 (NL4-3 strain). Nature of the data set: microbe, parasite or virus in culture. The class given is cell-based. The conditions noted are these: Human immunodeficiency virus 1, NL43, PBMC; 0.1 μM, PBMCs; read-out: Inhibition of HIV-1 entry (intracellular p24). As for the experimental part:
We also performed anti-HIV-1 entry assays to investigate the potential suppression by 3 of HIV-1 infection via its entry mechanism.
The Anti-HIV-1 entry assay was performed by measuring intercellular p24 antigen. Before the infection, PBMCs (2.5 × 10^6 cells/mL) were added into 96-well plates at 100 μL/well, then co-incubated with compounds of various concentrations for 2 h. PBMCs were then washed twice with PBS and infected with the NL4-3 strain of HIV-1 at an MOI of 0.02 for 2 h at 37 °C with 5% CO2 (CO2 incubator, Eppendorf, Hamburg, Germany). After two washes with PBS (1200 rpm, 20 °C, 5 min), the cells were re-suspended in 100 µL complete medium and incubated for 24 h. Subsequently, the PBMCs were washed and resuspended in 100 µL/well lysis buffer containing 1% protease inhibitor cocktail (Sigma-Aldrich, St. Louis, MO, USA). The intercellular p24 antigen was measured according to the protocol provided with the HIV-1 ELISA kit (PerkinElmer Inc. Waltham, MA, USA).

Data set [2] addresses T1, CD4 (Homo sapiens, UniProt P01730).
T1 construct: endogenous in cells; host or cells: SUP-T1 cells
Nature of the data set: CD4 competitive binding assay (FITC anti-human CD4 antibody, SUP-T1 cells). The note with it: for inhibition at 100 µM / Inhibition at 100 μM (%): inhibition of anti-human CD4 antibody binding to SUP-T1 cells; for PInhibition (Experimental Data): transformed from % inhibition at 100 μM, presented as -ln. As for the experimental part: We chose CD4-expressing SUP-T1 cells to perform the competitive CD4 binding assay. Non-labeled anti-human CD4 antibody (RPA-T4 clone, BioLegend, San Diego, CA, USA) was used as a positive control.
The SUP-T1 cells were cultured in RPMI1640 medium supplemented with 10% (v/v) fetal bovine serum (FBS), 100 IU penicillin, 0.1 mg/mL streptomycin, and 2 mM L-glutamine. After collecting and washing twice with fluorescence activated cell sorting (FACS) buffer (0.5% BSA, 0.05% sodium azide in PBS) by centrifugation, SUP-T1 cells were seeded in a 96-well v-bottom plate at 5 × 10^5 cells/well. The supernatant was discarded by centrifugation and the cell pellet was resuspended with 50 μL various 2× concentrations of test compounds and 50 μL fluorescein isothiocyanate (FITC) labeled anti-human CD4 antibody (RPA-T4 clone, BioLegend, San Diego, CA, USA). The plate was incubated for 40 min on ice. After incubation, the cells were washed twice with FACS buffer by centrifugation, and then resuspended with the assay buffer. The FACS buffer was added at a volume of 50 μL per well. The fluorescence (485EX/528EM) was recorded using a Synergy II plate reader (BioTek Instruments, Inc., Winooski, VT, USA). Experimental data were generated in duplicate each time, and from at least three independent experiments. The mean values of fluorescence were normalized and expressed as a percentage of the control group values. Binding curves and IC50 values were calculated by GraphPad Prism 7 (GraphPad Software Inc., La Jolla, CA, USA) and presented as the mean ± SEM.

In data set [3] the test system is HIV-1 NL4-3 strain. As to the kind of experiment: Anti-HIV-1 infection assay (CEM-GFP reporter cells, GFP fluorescence). Format: cell-based. The note with it: Human immunodeficiency virus 1, NL43, HIV-1 NL4-3, 4-5 days. The source says:
We performed anti-HIV-1 infection and anti-HIV-1 entry assays by measuring GFP expression and intracellular p24 antigen level. For the anti-HIV-1 infection assays, the CEM-GFP reporter cell line was used, and HIV-1 infection induced a 10- to 1000-fold increase in the relative fluorescence of the cells.
The CEM-GFP cells were obtained from the NIH AIDS program (NIH AIDS Reagent Program, Division of AIDS, NIAID, NIH: CEM-GFP Cells from Dr. Jacques Corbeil) and cultured in RPMI 1640 medium containing 10% FBS, 1% penicillin-streptomycin (Life Technologies, Carlsbad, CA, USA), 1% 200 mM L-glutamine (Mediatech-VWR, Aurora, CO, USA), and 500 µg/mL G418 (BioPioneer Inc, San Diego, CA, USA). After collecting and counting, the CEM-GFP cells were infected with HIV-1 NL4-3 strain (MOI 0.01) at 37 °C for 2–3 h, cells were then washed twice with PBS, and 10^5 cells/well were seeded into a 96-well plate in the presence of different concentrations of test compounds. After culturing at 37 °C with 5% CO2 for 4 or 5 days, the GFP fluorescence (485EX/528EM) was measured using a Synergy II microplate reader (BioTek Instruments, Inc., Winooski, VT, USA).

The test system of data set [4] is CEM-GFP cell line. As to the kind of experiment: CEM-GFP cell viability (CellTiter Blue). The class given is cell-based. The conditions noted are these: highest concentration 25 µM. The source says: Figure 3 The competitive CD4 binding assay results of analogs of 3 (A).
We also evaluated the anti-HIV-1 infection activity of 29 using the CEM-GFP reporter cell line.
A general note: Resazurin is reduced to fluorescent resorufin, in cell work by metabolically active cells.

In data set [5] the test system is HIV-1. Also noted: method as in PMID 12207905. The note with it: cited from earlier work.
Data set [6] has as its system HIV-1 nucleocapsid-p7 protein (NC-p7). Set-up: method as in PMID 12207905. The conditions noted are these: cited from earlier work.

pIC50: −log10 of the molar value. “Also recorded” adds a separate entry of the source. Peptide text beside a SMILES is read from it. Some results are limits rather than exact numbers.

As usually defined, the inhibition is the relative decrease from the control value, in per cent. Regarding `c1cc(CN2CCCNCCNCCCNCC2)ccc1CN1CCCNCCNCCCNCC1` [AMD3100, reference compound], the inhibition at 0.1 µM in data set [1] came to 57.6%.
For the compound `Cn1c(=O)c2c(nc(NCCNc3nc4c(c(=O)n(C)c(=O)n4C)n3C)n2C)n(C)c1=O` [Compound 1], in data set [2], the inhibition at 100 µM was 34.2%.
Same read-out and setting: next, `Nc1ccc(S(=O)(=O)c2ccc(NCN3C(=O)NC(=O)C(=O)C3=O)cc2)cc1` [Compound 2]: 36.9%; `N[C@@H](CSC1(c2ccc(Cl)cc2)c2ccccc2-c2ccccc21)C(=O)O` [Compound 4]: 22.6%.
A word on the Inhibition: it is the drop in the measured response relative to a control, in per cent. `Nc1ccn([C@H]2O[C@H](CO)[C@@H]3[O][Sn]([c]4ccccc4)([c]4ccccc4)[O][C@H]32)c(=O)n1` [Compound 5]: the “Inhibition at 100 μM (%)” value in data set [2] is reported as 33.09%.
With `Cc1cc(=O)oc2cc(O)cc(O)c12` [Compound 6], in data set [2], the “Inhibition at 100 μM (%)” value amounted to 5.64% and the “PInhibition (Experimental Data)” value was found to be 2.762.
Taken in the same sequence, the figures for `CC(=O)c1c(O)c2ccccc2oc1=O` [Compound 7] were 8.87% and 2.988.
Turning to `CCCCC(=O)c1c(O)ccc2c(C)cc(=O)oc12` [Compound 8], in data set [2], the “Inhibition at 100 μM (%)” value is listed as 12.04% and the “PInhibition (Experimental Data)” value is 3.136.
Taken in the same sequence, the figures for `CSCCC(NC(=O)C(CC(C)C)NC(=O)CNC(=O)C(NC(=O)C(Cc1ccccc1)NC(=O)C(CCC(N)=O)NC(=O)C(CC(=O)O)NC(=O)C(CO)NC(=O)C(CCCCN)NC(=O)C1CCCN1C(=O)C(NC(=O)C(N)CC(=O)O)C(C)C)C(C)C)C(N)=O` (stereo not drawn) [Compound 9] (H-DVPKSDQFVGLM-NH2; configuration not given here) were 6.40% and 2.835.
With `O=C(O)Cc1cc(=O)oc2cc(O)ccc12` [Compound 10], in data set [2], the “Inhibition at 100 μM (%)” value came out at 16.98% and the “PInhibition (Experimental Data)” value came out at 3.311.
In the same order, the values of `Cc1cc(=O)oc2c(O)c(O)ccc12` [Compound 11] are 10.83% and 3.084.
In the same order, the values of `O=c1oc2cc(O)ccc2c2c1CCCC2` [Compound 12] are 5.27% and 2.745.
In the same order, the values of `CCC(=O)c1cc2ccc(O)cc2oc1=O` [Compound 13] are 11.80% and 3.126.
Turning to `O=c1oc2cccc(O)c2c(O)c1Cc1ccccc1` [Compound 14], in data set [2], the “Inhibition at 100 μM (%)” value came to 8.47% and the “PInhibition (Experimental Data)” value is 2.966.
In the same order, the values of `CC(=O)/C=C(\c1ccccc1)c1c(O)c2ccccc2oc1=O` [Compound 15] are 15.80% and 3.273.
`CCC(=O)c1c(O)c2ccccc2oc1=O` [Compound 16]: in data set [2], the “Inhibition at 100 μM (%)” value is on record as 19.76% and the “PInhibition (Experimental Data)” value is 3.391.
With `CCCCCCCCCCCC(=O)c1c(O)c2ccccc2oc1=O` [Compound 17], in data set [2], the “PInhibition (Experimental Data)” value is 3.774.
The same measure, in the same setting: next, `CCCCC(=O)c1c(O)c2ccccc2oc1=O` [Compound 18]: 3.771; `O=C(O)Cc1cc(=O)oc2cc(O)ccc12` [Compound 19]: 3.668; `O=C(/C=C/c1ccccc1)CCc1c(O)c2ccccc2oc1=O` [Compound 20]: 3.874.
For `O=C(O)Cc1cccc2c(=O)cc(-c3ccccc3)oc12` [Compound 21], in data set [2], the inhibition at 100 µM was above 20% and the “PInhibition (Experimental Data)” value was 3.702.
On to `Cc1ccc(-c2cc(=O)c3cccc(CC(=O)O)c3o2)cc1` [Compound 22], for which, in data set [2], the “PInhibition (Experimental Data)” value is 3.809.
Still for that read-out and setting: next, `O=C(O)CCc1cccc2c(=O)cc(-c3ccccc3)oc12` [Compound 23]: 3.690; `O=C(O)Cc1cccc2c(=O)cc(Cc3ccccc3)oc12` [Compound 24]: 3.920; `O=C(O)Cc1cccc2c(=O)cc(C3CCCCC3)oc12` [Compound 25]: 3.541.
Consider `Cc1cc(=O)c2cccc(CC(=O)O)c2o1` [Compound 26], for which, in data set [2], the “Inhibition at 100 μM (%)” value came out at 18.10% and the “PInhibition (Experimental Data)” value is recorded as 3.344.
In the case of `Cc1cc2c(=O)cc(-c3ccccc3)oc2c(C(=O)O)c1C` [Compound 27], the “PInhibition (Experimental Data)” value in data set [2] came out at 4.024.
The same measure, in the same setting: the same measure for `O=C(O)/C=C/c1c2ccc(=O)c(O)c-2oc2c(O)c(O)ccc12` [Compound 28]: 4.566.
What is called pIC50 is −log10 of the IC50, conventionally taken in molar units. Consider `O=C(O)/C=C/c1c2ccc(=O)c(O)c-2oc2c(O)c(O)ccc12` [Compound 29], for which the pIC50 in data set [2] (SUP-T1 cells, anti-human CD4 antibody competition) is 4.85; in data set [3] it was 5.70. Moreover, in data set [2], the “PInhibition (Experimental Data)” value is recorded as 4.763. Further, in data set [4], the “Cytotoxicity in CEM-GFP cell line” value is listed as “complete lack of cytotoxicity effect; also recorded: no cytotoxicity”. Also, the “inhibition of HIV-1 infection” value in data set [5] is on record as “inhibit HIV-1 infection”. For the same compound, the “binding to NC-p7” value in data set [6] is given as “bind”.
Take `Cc1cc(=O)c2c(o1)-c1c(cc(O)c(O)c1C(=O)O)OC2` [Compound 30]: in data set [2], the “Inhibition at 100 μM (%)” value is given as 6.48% and the “PInhibition (Experimental Data)” value came to 2.841.
`O=c1oc2c(cc1O)oc(=O)c1cc(O)c(O)c(O)c12` [Compound 31]: the inhibition at 100 µM in data set [2] amounted to 16%.
For the compound `O=C(O)CCC(=O)c1ccc(Oc2ccccc2)cc1` [Compound 32], the “PInhibition (Experimental Data)” value in data set [2] turned out to be 3.400.

These data come from publication PMC6278378, “Virtual Screening, Biological Evaluation, and 3D-QSAR Studies of New HIV-1 Entry Inhibitors That Function via the CD4 Primary Receptor” (Molecules, 2018).
